Measurements reported in patent US9180183B2, “Phospholipid drug analogs” (Telormedix SA, priority 2010, dated 2015).
“Also recorded” adds a separate entry of the source.

What was measured:
[1] = system: human whole blood; test: Cytokine secretion in human whole blood assay (ELISA); format: cell-based; conditions: for IL-12p40 levels: all donors
Procedure: Before drawing the blood, the compounds were added to 96 well round bottom plates in a 10× diluted sample at 20 ul. The compounds were diluted in RPMI media without serum but with antibiotics. Antibiotics were added at a 10× concentration. After drawing the blood, the whole blood sample was gently mixed to obtain a homogeneous sample, and 180 ul was added to each well.
All compounds were setup in concentrations at 0-0.01-0.03-0.1-0.5-2.0-10.0 micromolar as the final concentration. Vehicle control was DMSO control, where we used the highest concentration used for the compounds. After addition of blood, all plates were gently agitated at 37° C. and 5% CO2 until harvest.
Concentrations of cytokines were determined by ELISA from R&D Systems. The results were analyzed in Graph Pad Prism in order to prepare dose-response curves, and for determination of EC50 values. FACS analysis was made by using Becton-Dickinson FACSDiva software and subsequently illustrated in Graph Pad Prism.

[2] = system: Cutaneous Squamous Cell Carcinoma (SCC) cell lines SCL-I, SCL-II, SCC-12, SCC-13; test: Proapoptotic and cytotoxic effects on cutaneous SCC cell lines (real-time cell analysis, microscopy); format: cell-based, human
Procedure: SCC cells are grown under standard conditions (10% FBS).
Time and dose dependency of effects on total cell numbers have been investigated by real-time cell analysis, which is based on continuous monitoring of electric conductance in microtiter wells (E-plates, Roche), which corresponds to the cell numbers. […] For these assays 4 cell lines should be used to obtain a representative overview on the effects on SCC cells.

[3] = system: PBMCs; test: IL-6 and TNF-alpha secretion in PBMCs (ELISA), Model 2; format: cell-based, human; conditions: three donors
[4] = Single dose intravenous toxicity study in rats; format: in vivo, Sprague Dawley rat
Procedure: An additional group, similarly composed, received the vehicle alone and acted as a control. […] Clinical signs were limited to piloerection and reduced activity, observed on the day of dosing.
In the main phase, 5 male and 5 female animals were dosed at 90 mg/kg and observed for a period of 14 days. A second group, similarly constituted, received the vehicle alone and acted as control. […] In addition, one male and one female dosed at 90 mg/kg were found dead on Day 2 of the study. Twitches, ataxia, piloerection, reduced activity and hunched posture were the major signs observed in animals before death. […] Piloerection was observed up to Day 3 of the study. A second group, similarly composed, was dosed at 80 mg/kg.

[5] = system: HLA-DR+/CD20+ B cells; test: FACS analysis of B cell activation in whole blood; format: cell-based, human; conditions: 24 hours; 2 and 10 uM; three donors
Procedure: The FACS analysis for donor 1 and donor 2 was made on another day than donor 3.
The FACS analysis was used to identify whether the test compounds could induce activation of B cells, and two different subsets of dendritic cells, namely the myeloid CD11c+/CD123− DCs and the plasmacytoid CD11c−/CD123+ DCs.
The FACS staining was performed according to the manufacturer's instructions. Lysis of red blood cells was performed before FACS staining in order to minimize auto-florescence. To include as many B cells and DCs in the study as possible the FACS analyses were performed on 500,000 cells in total for each staining. […] The results of the individual analysis were present as Mean Fluorescence Intensity
The analysis of expression of the activation marker CD40 on B cells was made on double positive HLA-DR (MHC class II) (P4 gate) and CD20 cells (B cell marker) (P8 gate).

[6] = system: human PBMCs; test: IL-6 secretion in human PBMCs, two batches of Compound A and SC12; format: cell-based; conditions: 5 months storage in DMSO at 4° C.
Procedure: PBMCs were purified from two donors and plated into 96 well plates at 2×10^5 cells/well in RPMI media including human 2% heat inactivated AB serum, glutamine, Pen-strep and R-mercapto-ethanol. […] The conditioned media was removed for ELISA analyses for IL-6, and the EC50 value determined for each compound and each batch.
All compounds were tested in four concentrations (10-1-0, 1-0.01 micromolar).
Concentrations of IL-6 were determined by ELISA from R&D Systems using the Microsoft Excel software. The results were analyzed in Graph Pad Prism in order to prepare dose-response curves, and for determination of EC50 values.

[7] = Solubility in organic solvents; format: physicochemical; conditions: especially in ACN
[8] = system: AY-27 rat bladder cancer cell-line; conditions: day 12
[9] = system: Salmonella typhimurium TA1535, TA1537, TA98, TA100; test: Bacterial mutation assay, Salmonella typhimurium; format: cell-based; conditions: absence or presence of S9 metabolism
Procedure: (§1) The five tester strains TA1535, TA1537, TA98, TA100 and WP2 uvrA were used. Experiments were performed both in the absence and presence of metabolic activation, using liver S9 fraction from rats pre-treated with phenobarbitone and betanaphthoflavone. SC12 was used as a solution in dimethylsulfoxide (DMSO).

[10] = target: CYP3A4 (Homo sapiens (Human), UniProt P08684); test: Fluorescent High Throughput P450 assay CYP3A4; format: in vitro ADME
Procedure: (§2) Inhibition of the P450 isoforms was measured in specific assays using specific substrates that become fluorescent upon CYP metabolism. Compounds, dissolved in ACN (acetonitrile) (CYP2E1, CYP2C8, CYP2B6, CYP3A5) or DMSO (all remaining isoforms), were tested in duplicate (n=2) in concentration-response curves (eight concentrations) in a 96-well plate containing incubation/NADPH regenerating buffer. Specific isoenzymes and substrates were added and incubated at 37° C. Reactions were terminated at different times, depending on the assays, and plates read on a Fluoroskan Ascent at the appropriate emission/excitation wavelengths. Concentration-response curves performed in duplicate for known inhibitors for each isoenzyme were tested in every assay as positive control.

[11] = system: Escherichia coli WP2 uvrA; test: Bacterial mutation assay, Escherichia coli; format: cell-based; conditions: absence or presence of S9 metabolism
Procedure: as §1

[12] = Intravenous pharmacokinetics in the mouse; conditions: IV bolus 1 mg/kg; for Plasma concentration Mean ± S.D.: LLOQ: 5 ng/ml
Procedure: An IV bolus was administered into the caudal vein at a dose of 1 mg/kg in 5 ml. The compound weight was 2.08/10.04 ml. 24 mice were studied. Sampling was obtained by exsanguination under anesthesia, at 5, 15, 30, 60, 240, and 480 minutes, and at 24 hours. […] Animals were sacrificed using ethyl ether at the conclusion of the experiment.
Sample preparation: In a Sirocco filter plate, 100 microliters of plasma were added to 300 microliters of ACN/MeOH spiked with 5 microliters of IS (IV298 10 micrograms per ml) plus 10 microliters of 5% H3PO4. The plate was shaken for 10 minutes at 80 rpm and then filtered under vacuum for 5 minutes.
Analytical method: LC/MS/MS: Premiere XE, Eluent: water (A) MeOH (B) plus 0.1% HCOOH gradient. 15% B to 100% B from 0.1 to 0.5, then isocratic 100% B up to 1.5 minutes, flow 0.8 ml/min; Column Acquity UPLC BEH C18 1.7 microm 2.1×50 mm, injection volume of 5 microliters in a T column at 50° C. ESI positive, MRM, Extractor 5V; Capillary 3.5 kV; T source 115° C.; T desolv. 450° C.
Data analysis: Non-compartmental analysis WinNonlin 5.1; linear trapezoidal, uniform weight.

[13] = target: CYP3A5 (Homo sapiens (Human), UniProt P20815); test: Fluorescent High Throughput P450 assay CYP3A5; format: in vitro ADME
Procedure: as §2

[14] = whole blood, 6 hours incubation
[15] = toxicity test, 50.0-5000 micrograms/plate

Chain of CYP3A5 (P20815 whole entry, looked up): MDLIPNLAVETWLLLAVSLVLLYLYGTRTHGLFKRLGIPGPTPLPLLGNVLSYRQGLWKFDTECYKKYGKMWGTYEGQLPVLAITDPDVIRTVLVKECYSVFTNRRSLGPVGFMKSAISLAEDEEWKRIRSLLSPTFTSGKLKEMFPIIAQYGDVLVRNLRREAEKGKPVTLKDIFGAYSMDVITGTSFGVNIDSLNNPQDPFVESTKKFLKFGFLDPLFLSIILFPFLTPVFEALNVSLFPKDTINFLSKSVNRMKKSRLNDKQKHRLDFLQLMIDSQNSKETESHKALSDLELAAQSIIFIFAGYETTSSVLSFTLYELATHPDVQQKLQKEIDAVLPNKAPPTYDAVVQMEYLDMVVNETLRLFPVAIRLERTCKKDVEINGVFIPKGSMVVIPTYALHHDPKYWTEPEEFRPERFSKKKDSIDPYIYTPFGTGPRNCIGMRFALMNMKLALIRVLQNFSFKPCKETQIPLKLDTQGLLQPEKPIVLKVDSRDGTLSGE
Chain of CYP3A4 (P08684 whole entry, looked up): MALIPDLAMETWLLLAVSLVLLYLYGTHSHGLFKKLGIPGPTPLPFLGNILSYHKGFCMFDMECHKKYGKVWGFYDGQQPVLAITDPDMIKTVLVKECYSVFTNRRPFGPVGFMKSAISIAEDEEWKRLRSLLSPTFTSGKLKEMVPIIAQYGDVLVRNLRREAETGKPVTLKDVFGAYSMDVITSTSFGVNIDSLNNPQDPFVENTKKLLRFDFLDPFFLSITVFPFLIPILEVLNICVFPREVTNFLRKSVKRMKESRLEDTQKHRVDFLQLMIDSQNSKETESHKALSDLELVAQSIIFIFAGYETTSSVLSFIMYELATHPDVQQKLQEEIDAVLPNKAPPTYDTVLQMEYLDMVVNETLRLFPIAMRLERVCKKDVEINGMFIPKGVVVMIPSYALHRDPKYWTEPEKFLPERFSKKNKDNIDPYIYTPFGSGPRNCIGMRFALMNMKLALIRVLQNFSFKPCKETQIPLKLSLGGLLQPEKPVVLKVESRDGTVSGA

CCCCCCCCCCCC(=O)OCC(COP(=O)(O)OCCNC(=O)c1ccc(Cn2c(=O)[nH]c3c(N)nc(OCCOC)nc32)cc1)OC(=O)CCCCCCCCCCC (stereo not shown) [SC12]
induction of DC secreted cytokines (in words) ([1]; supernatant from whole blood cell assays): potent inducers | range of IL-6 secretion ([1]; whole blood, three donors): 4000 to 8000 pg/mL | ranges of IFN-alpha secreted ([1]; whole blood, three donors): 1000 to 2000 pg/mL | IL-10 production (in words) [1, 14]: no IL-10 production was seen | IL-12p40 levels [1, 14]: 8.000 to 12.000 pg/mL | IL-12p40 levels ([1]; whole blood, 24 hours incubation): 20.000 to 25.000 pg/mL | morphological changes (microscopy) ([2]; SCC cells, time of treatment 3d, 120 microM): cell detachment, morphological changes and inhibition of proliferation | cell numbers (real-time cell analysis, electric conductance) ([2]; cutaneous SCC cell lines): reduced cell numbers | induction of IL-6 and TNF-alpha secretion (in words) [3]: most potent TLR7 agonists | mortality ([4]; 76 mg/kg i.v., preliminary phase): No mortality occurred | mortality and clinical signs ([4]; 80 mg/kg i.v., main phase): No mortality occurred and no clinical signs were recorded | clinical signs ([4]; 85 mg/kg i.v., preliminary phase): Piloerection | mortality and signs of toxicity ([4]; 90 mg/kg i.v., main phase): induced mortality or significant signs of toxicity | mortality ([4]; 90 mg/kg i.v., preliminary phase): No mortality occurred | mortality ([4]; 100 mg/kg i.v., preliminary phase): Both animals died at dosing | maximum tolerated dose ([4]; single intravenous administration, rat): 80 mg/kg | CD40 expression (MFI, in words) [5]: induced CD40 expression in donor 1 and donor 2 in all tested concentrations | activity after storage (in words) [6]: have not lost activity | solubility [7]: low solubility | Range of weight of the rat bladders ([8]; 0.5 ml intravesical instillation (Imiquimod 0.1%, SC12 0.38%) on day 2 and 5): 0.0780-0.1422 grams | Tumor free (% of rats) ([8]; of 14 rats per group): 42.9% | Tumor free (number of rats) ([8]; of 14 rats per group): 6 | pT2 Tumor (% of rats) ([8]; of 14 rats per group): 50.0% | pT2 Tumor (number of rats) ([8]; of 14 rats per group): 7 | pTa Tumor (% of rats) ([8]; of 14 rats per group): 7.1% | pTa Tumor (number of rats) ([8]; of 14 rats per group): 1 | toxicity to tester strains [9, 15]: No toxicity was observed | reverse mutation / revertant colonies ([9]; up to 5000 micrograms/plate): did not induce two-fold increases in the number of revertant colonies; also recorded: does not induce reverse mutation | inhibition of CYP3A4 (in words) [10]: moderate inhibition | toxicity to tester strains [11, 15]: No toxicity was observed | reverse mutation / revertant colonies ([11]; up to 5000 micrograms/plate): did not induce two-fold increases in the number of revertant colonies; also recorded: does not induce reverse mutation | adverse behavioral effects [12]: No adverse behavioral effects | Cl ([12]; plasma): 77.7 mL/min/kg | Clast ([12]; plasma): 6 ng/mL | MRT ([12]; plasma): 32 min | T ½ ([12]; plasma): 130 min | Tlast ([12]; plasma): 120 min | Tmax ([12]; plasma): 5 min | Vss ([12]; plasma): 2.5 L/kg | Plasma concentration Mean ± S.D. ([12]; 240 min): <LLOQ | Plasma concentration Mean ± S.D. ([12]; 480 min): <LLOQ | Plasma concentration Mean ± S.D. ([12]; 1440 min): <LLOQ | inhibition of CYP3A5 (in words) [13]: moderate inhibition
